Like-named read-outs stand apart in the source and are kept apart here.
Columns and labels:
[1] = in vivo; cited from earlier work
[2] = system: humans subjected to simulated night shift work; details: cited from earlier work
rhesus monkeys = details: sleep deprivation; cited from earlier work
[3] = system: children aged 7 to 15 with ADHD; details: cited from earlier work; for ADHD symptoms and global ratings: parent and clinician ratings, 9 weeks
[4] = in vivo; cited from earlier work; remark: listed apart in the source
[5] = system: metastatic renal cell carcinoma; details: continuous infusion, 70% of the daily dose between 15:00 h and 21:00 h; cited from earlier work
arthritis = details: night versus 8:00 am; cited from earlier work
[6] = system: sleep-deprived F-117 pilots; details: 300 mg in three divided 100-mg doses; cited from earlier work
helicopter pilots = details: 600 mg in three doses, 8 hours of sleep in an 88 hour period; cited from earlier work
[7] = human cadaver skin dermatomed to 0.5 mm, 10 cm^2, 100 mg/ml in ethanol/water 1/1, 200 ul doses, EVA membrane
Protocol: The area of skin permeation was 10 cm^2. […] Each time, 200 µl of formulation was dispensed on a 10 cm^2 surface area of interface of diffusion, separated from the skin by the EVA membrane. […] Additionally, the dose quantity was strictly controlled and monitored. Drug flux samples were obtained using a flow-through Franz cell permeation system with samples collected every 15 minutes. Hourly time point samples were analyzed and recorded. Samples were analyzed by UV/Vis spectrophotometry.

[8] = low, medium and high concentrations, 16 hours, 12 human subjects
Protocol: The device, described herein, was tested on 12 healthy male volunteers for an open, three-periods, single center, dose-escalation study using nicotine as the model compound.

[9] = oral dosing with 5 mg or transdermally with 39 mg; cited from earlier work
[10] = evening versus morning; cited from earlier work
smoking = details: in vivo; cited from earlier work

SMILES: O=C(C[S+]([O-])C(c1ccccc1)c1ccccc1)NO (stereo not shown) [Adrafinil]
- half-life [1]: about 60 minutes
- time to peak concentration [1]: about 60 minutes

SMILES: O=C(c1ccc2nonc2c1)N1CCOCC1 [CX717]
- cognitive performance [2]: did not improve cognitive performance
- performance after receiving the drug (rhesus monkeys): performed faster and better

SMILES: CNCC[C@@H](Oc1ccccc1C)c1ccccc1 [atomoxetine]
- tolerability ([3]; in vivo): well tolerated
- ADHD symptoms and global ratings [3]: associated with reductions in ADHD symptoms and improved global ratings
- half-life average [4]: 3.12 h
- time of peak plasma concentration after dosing [4]: 1 to 2 h

SMILES: O=c1[nH]c(=O)n([C@H]2C[C@H](O)[C@@H](CO)O2)cc1F [fluorodeoxyuridine]
- objective response [5]: 29%

SMILES: COc1ccc2c(c1)c(CC(=O)O)c(C)n2C(=O)c1ccc(Cl)cc1 [indomethacin]
- efficacy and patient compliance by time of dosing (arthritis): better efficacy and patient compliance when dosed at night than when dosed at 8:00 am

SMILES: COC(=O)C(c1ccccc1)C1CCCCN1 (stereo not shown) [methylphenidate]
- tolerability ([3]; atomoxetine twice daily, methylphenidate 2 or 3 times daily): well tolerated
- ADHD symptoms and global ratings [3]: associated with reductions in ADHD symptoms and improved global ratings

SMILES: NC(=O)C[S+]([O-])C(c1ccccc1)c1ccccc1 (stereo not shown) [modafinil]
- flight control accuracy sustained to within percent of baseline levels [6]: about 27%
- alertness of pilots (helicopter pilots): can be used to keep pilots alert

SMILES: CN1CCCC1c1cccnc1 (stereo not shown) [nicotine]
- maximum transdermal flux value [7]: 160 ng/cm^2/hr
- blood plasma concentration profile [8]: clear and distinct peaks and troughs of therapeutically effective and well-targeted blood plasma concentration levels

SMILES: CCN(CC)CC#CCOC(=O)C(O)(c1ccccc1)C1CCCCC1 (stereo not shown) [oxybutynin]
- mean maximum blood plasma concentration [9]: 3 ng/mL

SMILES: CCCC(CCC)C(=O)O [valproate]
- absorption by time of day [10]: absorb it more slowly and less efficiently when they take it in the evening than in the morning

SMILES: c1cnc2cc3c(cc2n1)[C@@H]1CNC[C@H]3C1 [varenicline]
- chances of quitting smoking (smoking): can more than double the chances of quitting smoking
